These are literature values, as cited in US20240358662A1, “COMPOSITIONS, METHODS AND SYSTEMS FOR AEROSOL DRUG DELIVERY” (ASTRAZENECA PHARMACEUTICALS LP, priority 2021, published 2024).

Each structure is given as a SMILES string.

For the first series the following is noted: 20° C.
For the compound `FCC(F)(F)F` [HFA-134a, 1,1,1,2-tetrafluoroethane], the “Liquid Density @ 20° C.” value is listed as 1.23 g/mL, the “Liquid Viscosity @ 20° C. (mPa · S)” value is 0.211 mPa · S, the “Surface Tension @ 20° C. (mN/m)” value is reported as 8.09 mN/m and the “Vapor Pressure @ 20° C. (kPa)” value is on record as 570 kPa.
As to `FC(C(F)(F)F)C(F)(F)F` [HFA-227ea, 1,1,1,2,3,3,3-Heptafluoropropane], the “Liquid Density @ 20° C.” value is on record as 1.41 g/mL, the “Liquid Viscosity @ 20° C. (mPa · S)” value was 0.267 mPa · S, the “Surface Tension @ 20° C. (mN/m)” value is given as 7.50 mN/m and the “Vapor Pressure @ 20° C. (kPa)” value is given as 390 kPa.
Take `FC=CC(F)(F)F` [HFO-1234ze, 1,3,3,3-tetrafluoropropene]: the “Liquid Density @ 20° C.” value is recorded as 1.18 g/mL, the “Liquid Viscosity @ 20° C. (mPa · S)” value is listed as 0.206^3 mPa · S, the “Surface Tension @ 20° C. (mN/m)” value is 8.9 mN/m and the “Vapor Pressure @ 20° C. (kPa)” value is given as 427 kPa.
As to `CC(F)F` [HFC-152a, 1,1-Difluoroethane], the “Liquid Density @ 20° C.” value is reported as 0.91 g/mL, the “Liquid Viscosity @ 20° C. (mPa · S)” value is recorded as 0.171 mPa · S, the “Surface Tension @ 20° C. (mN/m)” value was 10.4 mN/m and the “Vapor Pressure @ 20° C. (kPa)” value is listed as 510 kPa.
Consider `C=C(F)C(F)(F)F` [HFO-1234yf, 2,3,3,3-Tetrafluoropropene], for which the “Liquid Density @ 20° C.” value is 1.11 g/mL, the “Liquid Viscosity @ 20° C. (mPa · S)” value is listed as 0.164 mPa · S, the “Surface Tension @ 20° C. (mN/m)” value is on record as 6.8 mN/m and the “Vapor Pressure @ 20° C. (kPa)” value is 592 kPa.

Staying with this series, now noted: 25° C.
Turning to `FCC(F)(F)F` [HFA-134a, 1,1,1,2-tetrafluoroethane], the “Latent Heat @ 25° C.” value was 177.7 kJ/kg.
With `FC(C(F)(F)F)C(F)(F)F` [HFA-227ea, 1,1,1,2,3,3,3-Heptafluoropropane], the “Latent Heat @ 25° C.” value is 110.97 kJ/kg.
Take `FC=CC(F)(F)F` [HFO-1234ze, 1,3,3,3-tetrafluoropropene]: the “Latent Heat @ 25° C.” value is recorded as 166.8 kJ/kg.
Regarding `CC(F)F` [HFC-152a, 1,1-Difluoroethane], the “Latent Heat @ 25° C.” value is listed as 279.1 kJ/kg.
With `C=C(F)C(F)(F)F` [HFO-1234yf, 2,3,3,3-Tetrafluoropropene], the “Latent Heat @ 25° C.” value is reported as 145.4 kJ/kg.

Staying with this series, now noted: at boiling point.
As for `FCC(F)(F)F` [HFA-134a, 1,1,1,2-tetrafluoroethane], the “Latent Heat @ Boiling Point” value is listed as 216.7 kJ/kg.
In the case of `FC(C(F)(F)F)C(F)(F)F` [HFA-227ea, 1,1,1,2,3,3,3-Heptafluoropropane], the “Latent Heat @ Boiling Point” value is 131.4 kJ/kg.
For the compound `FC=CC(F)(F)F` [HFO-1234ze, 1,3,3,3-tetrafluoropropene], the “Latent Heat @ Boiling Point” value was 195.43 kJ/kg.
In the case of `CC(F)F` [HFC-152a, 1,1-Difluoroethane], the “Latent Heat @ Boiling Point” value was 318.4 kJ/kg.
Turning to `C=C(F)C(F)(F)F` [HFO-1234yf, 2,3,3,3-Tetrafluoropropene], the “Latent Heat @ Boiling Point” value was 180.5 kJ/kg.
